Measured values reported in patent US20060116390A1, “Hepatitis c virus inhibitors” (priority 2003, published 2006).
Read-outs that look alike come from different tables or passages of the source.

Test system: HCV proteins in Rep5.1 cells (replicon cell line)
Assay: Inhibitory activity of HCV: cell-based ELISA in replicon cell line Rep5.1 (decrease of HCV proteins)
Set-up: species or system hepatitis C virus
Details: Rep5.1 cells, 72 hours with drug
Method: In order to, screen and evaluate the anti-HCV therapeutic agents in cell level, the following experiments are carried out using a replicon cell line, Rep5.1 [Lohmann, et al., Replication of subgenomic hepatitis C virus RNAs in a hepatoma cell line. Science 285:110-113 (1999)].
Rep5.1 cells, the replicon cell line, are cultured in DMEM-10 containing 500 μg/ml of G418. The Rep5.1 cells in log phase are suspended by trypsin treatment, and 5000 cells are distributed to each well of a 96-well plate. After 4 hours when the cells are attached to the plate, the serially diluted drug is added to each well. After 48 hours, a part of the treated cells are observed by microscope, and MTT assay is carried out to evaluate the drug toxicity. The cytotoxicity is estimated in percentage based on the control containing no drug. After 72 hours, the remaining cells are fixed by methanol/acetone (50/50, v/v), and the decrease of HCV proteins is measured by using HCV antibody. The extent of decrease is estimated in percentage based on the control containing no drug, and the concentration of drug at which 50% of proteins is decreased is determined to be IC50. The compounds showing activity via this procedure are validated by Western blotting. In order to find out whether the decrease of HCV protein is related to the decrease of replicon RNA, Rep5.1 cell is treated with some selected drugs for 72 hours, RNA is purified, dot blotted, and hybridized with isotope labelled nucleic acid to determine the amounts of actin mRNA and replicon RNA, and finally the amount of RNA is compared.
Plasma samples from 300 persons positive to the hepatitis C antibody test were screened by antibody diagnosis kit produced by LG life Sciences Ltd. (LG HCD3.0 TMB) to select 40 plasma samples having high titer. Replicon cell line and Huh-7 cell line each were cultured in a 96-well cell culture plate, fixed by methanol/acetone (1:1) mixture, and blocked by 3% skimmed milk. The 40 plasma sanples selected above were 100-fold diluted and aided thereto, and the bound antibodies were probed by anti-Human goat antibody (Sigma) to which Horse Radish Peroxidase is attached. As a result, 12 plasma samples having low specificity to Huh-7 cell line, but high specificity to replicon cell line were obtained. These plasma samples were used in the following cell-based ELISA.
Rep5.1 cells were cultured in DMEM-10 containing 500 μg/ml of G418. The Rep5.1 cells in log phase were suspended by trypsin treatment, and 5000 cells were distributed to each well of a 96-well pate. After 4 hours for which the cells were attached to the plate, the serially diluted drug was added to each well. After 72 hours, the cells were fixed by methanol/acetone (50/50, v/v), and the decrease of HCV proteins was measured by using HCV antibody obtained as above. The extent of decrease was estimated in percentage based on the control containing no drug, and the concentration of drug at which 50% of proteins was decreased was determined to be IC50.

[1] = Hepatitis C virus, 72 h, concentration at which 50% of HCV proteins was decreased, Table 2, read-out: IC50
[2] = Hepatitis C virus, 72 h, decrease of HCV proteins measured by HCV antibody, Table 1, read-out: Level (IC50 values classified)
[3] = concentration at which 50% of HCV proteins was decreased, Table 2, read-out: IC50

Structure (SMILES)	IC50 [1] [µM]	IC50 [2] [µM]	IC50 [3] [µM]
CC1=C(C(=O)SCc2ccco2)CNC(=S)N1 [38′, 6-methyl-2-thioxo-1,2,3,4-tetrahydro-pyrimidine-5-carbothioic acid S-furan-2-ylmethyl ester]	0.7	< 1	
CC1=C(C(=O)OCc2ccc(OCC(C)C)cc2)CNC(=S)N1 [Compound 72, 6-methyl-2-thioxo-1,2,3,4-tetrahydro-pyrimidine-5-carboxylic acid 4-isobutoxy-benzyl ester]	< 0.5	< 1	
CC1=C(C(=O)OCCCc2ccc(OCc3ccccc3)cc2)CNC(=S)N1 [Compound 108, 6-methyl-2-thioxo-1,2,3,4-tetrahydro-pyrimidine-5-carboxylic acid 3-(4-benzyloxy-phenyl)-propyl ester]	< 0.4	< 1	
CC1=C(C(=O)OCCc2ccc(F)c(F)c2)C(CO)NC(=S)N1 (centres unmarked) [68″, 4-hydroxymethyl-6-methyl-2-thioxo-1,2,3,4-tetrahydro-pyrimidine-5-carboxylic acid 2-(3,4-difluoro-phenyl)-ethyl ester]	2.7	1 to 10	
CC1=C(C(=O)OCC2CCCCC2)CNC(=S)N1 [Compound 29, 6-methyl-2-thioxo-1,2,3,4-tetrahydro-pyrimidine-5-carboxylic acid cyclohexylmethyl ester]	0.3	< 1	
CC1=C(C(=O)OCCCn2c(=O)sc3ccccc32)C(CF)NC(=S)N1 (centres unmarked) [48′, 4-fluoromethyl-6-methyl-2-thioxo-1,2,3,4-tetrahydro-pyrimidine-5-carboxylic acid 3-(2-oxo-benzothiazol-3-yl)-propyl ester]	21	> 20	
CC1=C(C(=O)OCCc2cccc(C(F)(F)F)c2)C(COC(=O)C(C)N)NC(=S)N1 (centres unmarked) [73″, 4-(2-amino-propionyloxymethyl)-6-methyl-2-thioxo-1,2,3,4-tetrahydro-pyrimidine-5-carboxylic acid 2-(3-trifluoromethyl-phenyl)-ethyl ester]	0.4	< 1	
CC1=C(C(=O)OCCc2cc3c(C)nn(C)c3s2)CNC(=S)N1 [Compound 267, 6-methyl-2-thioxo-1,2,3,4-tetrahydro-pyrimidine-5-carboxylic acid 2-(1,3-dimethyl-1H-thieno[2,3-c]pyrazol-5-yl)-ethyl ester]	24	> 20	
CC1=C(C(=O)OCCc2c(F)cccc2Cl)C(CF)NC(=S)N1 (centres unmarked) [87′, 4-fluoromethyl-6-methyl-2-thioxo-1,2,3,4-tetrahydro-pyrimidine-5-carboxylic acid 2-(2-chloro-6-fluoro-phenyl)-ethyl ester]	< 0.4	< 1	
COCCN(C)c1ccc(CCCOC(=O)C2=C(C)NC(=S)NC2CF)cc1 (centres unmarked) [59′, 4-fluoromethyl-6-methyl-2-thioxo-1,2,3,4-tetrahydro-pyrimidine-5-carboxylic acid 3-{4-[(2-methoxy-ethyl)-methyl-amino]-phenyl}-propyl ester]	34	> 20	
CC1=C(C(=O)OCCc2cccc([N+](=O)[O-])c2)C(COC(=O)OCC2COC(C)(C)O2)NC(=S)N1 (centres unmarked) [77″, 4-(2,2-dimethyl-[1,3]dioxolan-4-ylmethoxycarbonyloxymethyl)-6-methyl-2-thioxo-1,2,3,4-tetrahydro-pyrimidine-5-carboxylic acid 2-(3-nitro-phenyl)-ethyl ester]	5.6	1 to 10	
CCc1ccc(COC(=O)C2=C(C)NC(=S)NC2)cc1 [Compound 152, 6-methyl-2-thioxo-1,2,3,4-tetrahydro-pyrimidine-5-carboxylic acid 4-ethyl-benzyl ester]	0.5	< 1	
CC1=C(C(=O)OCCCCSc2nc3ccccc3s2)C(CO)NC(=S)N1 (centres unmarked) [70″, 4-hydroxymethyl-6-methyl-2-thioxo-1,2,3,4-tetrahydro-pyrimidine-5-carboxylic acid 4-(benzothiazol-2-ylsulfanyl)-butyl ester]	0.4	< 1	
CC1=C(C(=O)OCCc2ccc(Cl)cc2)CNC(=S)N1 [Compound 94, 6-methyl-2-thioxo-1,2,3,4-tetrahydro-pyrimidine-5-carboxylic acid 2-(4-chloro-phenyl)-ethyl ester]	< 0.4	< 1	
CC1=C(C(=O)OCCc2cccc(Cl)c2)C(COC(=O)OCC2COC(=O)O2)NC(=S)N1 (centres unmarked) [88″, 6-methyl-4-(2-oxo-[1,3]dioxolan-4-ylmethoxycarbonyloxymethyl)-2-thioxo-1,2,3,4-tetrahydro-pyrimidine-5-carboxylic acid 2-(3-chloro-phenyl)-ethyl ester]	0.9	< 1	
C#CC(C)OCC#CCOC(=O)C1=C(C)NC(=S)NC1 (centres unmarked) [Compound 246, 6-methyl-2-thioxo-1,2,3,4-tetrahydro-pyrimidine-5-carboxylic acid 4-(1-methyl-prop-2-inyloxy)-but-2-inyl ester]			68
CC1=C(C(=O)OCc2ccco2)CNC(=S)N1 [Compound 12, 6-methyl-2-thioxo-1,2,3,4-tetrahydro-pyrimidine-5-carboxylic acid furan-2-ylmethyl ester]	22	10 to 20	
CC1=C(C(=O)OCC=Cc2ccco2)CNC(=S)N1 [Compound 251, 6-methyl-2-thioxo-1,2,3,4-tetrahydro-pyrimidine-5-carboxylic acid 3-furan-2-allyl ester]			1.6
CC1=C(C(=O)OCc2ccc(OC(=O)OC(C)(C)C)cc2)CNC(=S)N1 [Compound 228, 6-methyl-2-thioxo-1,2,3,4-tetrahydro-pyrimidine-5-carboxylic acid 4-t-butoxycarbonyloxy-benzyl ester]	23	10 to 20	
CC1=C(C(=O)OCCc2ccccc2Cl)C(CO)NC(=S)N1 (centres unmarked) [41″, 4-hydroxymethyl-6-methyl-2-thioxo-1,2,3,4-tetrahydro-pyrimidine-5-carboxylic acid 2-(2-chloro-phenyl)-ethyl ester]	7.2	1 to 10	
CC1=C(C(=O)OCc2ccc3nc(C)oc3c2)CNC(=S)N1 [Compound 256, 6-methyl-2-thioxo-1,2,3,4-tetrahydro-pyrimidine-5-carboxylic acid 2-methyl-benzoxazol-6-ylmethyl ester]	3.4	1 to 10	
CC1=C(C(=O)OCC2=Cc3ccccc3S2(=O)=O)CNC(=S)N1 [Compound 127, 6-methyl-2-thioxo-1,2,3,4-tetrahydro-pyrimidine-5-carboxylic acid 1,1-dioxo-1H-11^6-benzo[b]thiophen-2-ylmethyl ester]			3.5
CC1=C(C(=O)OCC#Cc2ccccc2)C(CO)NC(=S)N1 (centres unmarked) [40″, 4-hydroxymethyl-6-methyl-2-thioxo-1,2,3,4-tetrahydro-pyrimidine-5-carboxylic acid 3-phenyl-prop-2-inyl ester]			> 100
CC1=C(C(=O)OCCCc2ccsc2)C(CS(=O)(=O)C(C)(C)C)NC(=S)N1 (centres unmarked) [68′, 6-methyl-4-(2-methyl-propane-2-sulfonylmethyl)-2-thioxo-1,2,3,4-tetrahydro-pyrimidine-5-carboxylic acid 3-thiophen-3-yl-propyl ester]	> 100	> 20	
CC1=C(C(=O)OCCc2ccsc2)C(CF)NC(=S)N1 (centres unmarked) [Compound 252, 4-fluoromethyl-6-methyl-2-thioxo-1,2,3,4-tetrahydro-pyrimidine-5-carboxylic acid 2-thiophen-3-yl-ethyl ester]	1.4	1 to 10	
CC1=C(C(=O)OCCc2cccs2)CNC(=S)N1 [Compound 206, 6-methyl-2-thioxo-1,2,3,4-tetrahydro-pyrimidine-5-carboxylic acid 2-thiophen-2-yl-ethyl ester]	0.6	< 1	
CC1=C(C(=O)OCc2ccc(O)cc2)CNC(=S)N1 [Compound 229, 6-methyl-2-thioxo-1,2,3,4-tetrahydro-pyrimidine-5-carboxylic acid 4-hydroxy-benzyl ester]	> 100	> 20	
